The record followed here is ChEMBL document CHEMBL3044675, “Synthesis and Antifungal Activities of Some Novel Pyrimidine Derivatives” (2011).

What all share (type): functional
The test system of assay [1] is Thanatephorus cucumeris. Put plainly: Antifungal activity against Thanatephorus cucumeris at 50 ug/ml by poisoned food technique.
Assay [2] concerns Sclerotinia sclerotiorum. Put plainly: Antifungal activity against Sclerotinia sclerotiorum at 50 ug/ml by poisoned food technique.
Assay [3] has as its system Ceratobasidium cereale. Put plainly: Antifungal activity against Ceratobasidium cereale at 50 ug/ml by poisoned food technique.
Assay [4] deals with Rhizoctonia solani. Put plainly: Antifungal activity against Rhizoctonia solani at 50 ug/ml by poisoned food technique.
Assay [5] concerns Phytophthora infestans. As to the kind of experiment: Antifungal activity against Phytophthora infestans at 50 ug/ml by poisoned food technique.
The subject of assay [6] is Macrophoma. Put plainly: Antifungal activity against Macrophoma kuwatsukai at 50 ug/ml by poisoned food technique.
Assay [7] concerns Fusarium fujikuroi. As to the kind of experiment: Antifungal activity against Fusarium fujikuroi at 50 ug/ml by poisoned food technique.
In assay [8] the test system is Fusarium graminearum. Put plainly: Antifungal activity against Fusarium graminearum at 50 ug/ml by poisoned food technique.
The test system of assay [9] is Mycosphaerella arachidis. As to the kind of experiment: Antifungal activity against Mycosphaerella arachidis at 50 ug/ml by poisoned food technique.
The subject of assay [10] is Bipolaris maydis. Put plainly: Antifungal activity against Cochliobolus heterostrophus at 50 ug/ml by poisoned food technique.
Assay [11] has as its system Botrytis cinerea. Put plainly: Antifungal activity against Botryotinia fuckeliana at 50 ug/ml by poisoned food technique.
Assay [12] concerns Alternaria solani. As to the kind of experiment: Antifungal activity against Alternaria solani at 50 ug/ml by poisoned food technique.
For assay [13], the system named is Alternaria mali. Put plainly: Antifungal activity against Alternaria mali at 50 ug/ml by poisoned food technique.
Assay [14] has as its system Alternaria kikuchiana. As to the kind of experiment: Antifungal activity against Alternaria kikuchiana at 50 ug/ml by poisoned food technique.

Regarding `COc1ccc(/C(=C\C(=O)N2CCOCC2)c2ccc(F)cc2)cc1OC` [FLUMORPH], the Activity in assay [1] was found to be 9.8%; in assay [2], 0%; in [3] it was 20%; in assay [4], 61.9%; in [5] it was 4.5%; in [6] it was 21.9%. Further, the Activity in [7] was found to be 13.3%; in [8] it was 7.4%; in assay [9] it was 0%; in [10], 17.4%; in assay [11] it was 7.4%; in assay [12], 0%. Further, the Activity in [13] stood at 21.4%; in assay [14], 18.2%.
For the compound `COc1cc(OC)nc(NCc2cnc(Cl)s2)n1`, the Activity in [1] is 2%; in assay [2], 0%; in [3], 5%; in assay [4] it was 60.3%; in assay [5] it was 0%; in assay [6], 46.9%. The Activity in assay [7] was 26.7%; in assay [8], 29.6%; in assay [9] it was 13.3%; in [10], 17.4%; in [11], 37%; in assay [12] it was 5.9%. The Activity in [13] is given as 21.4%; in [14] it was 31.8%.
In the case of `COC(=O)Nc1nc2ccccc2[nH]1` [CARBENDAZIM], the Activity was found to be 98% in assay [1]; 73.3% in assay [2]; 100% in assay [3]; 100% in assay [4]; 27.3% in [5]; 43.8% in [6]. In addition, the Activity stood at 60% in assay [7]; 59.3% in assay [8]; 53.3% in [9]; 69.6% in [10]; 63% in assay [11]; 76.5% in assay [12]. In addition, the values for the Activity in [13] and in assay [14] were 78.6% and 81.8%, respectively.
Turning to `Cc1cc(OCc2ccc(Cl)nc2)nc(C(C)C)n1`, the Activity in [1] is 80.4%; in assay [2], 0%; in [3], 35%; in [4], 63.5%; in [5], 22.7%; in assay [6], 31.3%. For the same compound, the Activity was determined as 20% in assay [7]; 25.9% in [8]; 13.3% in assay [9]; 34.8% in [10]; 29.6% in assay [11]; 41.2% in assay [12]. Also, the Activity in assay [13] amounted to 21.4%; in assay [14], 45.5%.
As for `Cc1cc(OCc2cnc(Cl)s2)nc(C(C)C)n1`, the Activity in assay [1] came to 3.9%; in assay [2] it was 0%; in assay [3] it was 30%; in [4] it was 61.9%; in assay [5], 0%; in assay [6], 31.3%. Also, the Activity in assay [7] turned out to be 20%; in assay [8] it was 14.8%; in [9] it was 0%; in assay [10] it was 17.4%; in assay [11], 7.4%; in assay [12], 0%. Further, the Activity amounted to 0% in [13] and 18.2% in [14].
Turning to `COc1cc(OC)nc(NCc2ccc(Cl)nc2)n1`, the Activity in assay [1] was found to be 2%; in assay [2], 20%; in assay [3], 5%; in assay [4], 54%; in assay [5], 9.1%; in assay [6] it was 46.9%. For the same compound, the Activity in [7] amounted to 20%; in [8], 0%; in [9] it was 0%; in assay [10] it was 17.4%; in assay [11] it was 40.7%; in assay [12], 0%. For the same compound, the Activity in [13] was determined as 0%; in assay [14], 18.2%.
Take `COc1ccc(C(=CC(=O)N2CCOCC2)c2ccc(Cl)cc2)cc1OC` [DIMETHOMORPH]: the Activity in assay [1] was determined as 23.5%; in assay [2], 20%; in [3], 40%; in assay [4], 68.3%; in [5], 9.1%; in assay [6], 6.3%. Also, the Activity in assay [7] worked out at 20%; in assay [8] it was 0%; in assay [9], 0%; in assay [10], 17.4%; in [11], 18.5%; in assay [12], 5.9%. The values for the Activity in assay [13] and in assay [14] were 7.1% and 22.7%, respectively.
Turning to `Cc1cc(NC2CCCCC2)nc(C(C)C)n1`, the Activity came to 52.9% in [1]; 33.3% in assay [2]; 0% in [3]; 55.6% in [4]; 36.4% in assay [5]; 0% in assay [6]. In addition, the Activity in assay [7] is listed as 13.3%; in assay [8], 22.2%; in [9], 46.7%; in assay [10], 13%; in [11] it was 3.7%; in [12], 0%. For the same compound, the figures for the Activity in [13] and in [14] were 21.4% and 27.3%, respectively.
Take `Cc1cc(C)nc(Nc2ccccc2)n1` [PYRIMETHANIL]: the Activity in [1] was 98%; in assay [2] it was 86.7%; in assay [3] it was 40%; in assay [4] it was 77.8%; in assay [5], 22.7%; in [6] it was 100%. Further, the Activity in [7] is recorded as 20%; in assay [8] it was 44.4%; in assay [9], 100%; in assay [10], 91.3%; in assay [11], 96.3%; in assay [12], 100%. Further, the Activity was 21.4% in [13] and 100% in assay [14].
Regarding `Cc1cc(Nc2ccccc2)nc(C(C)C)n1`, the Activity is given as 39.2% in assay [1]; 0% in [2]; 5% in assay [3]; 57.1% in [4]; 0% in [5]; 21.9% in assay [6]. Moreover, the Activity in [7] is recorded as 0%; in assay [8], 7.4%; in assay [9] it was 33.3%; in [10] it was 26.1%; in assay [11], 7.4%; in assay [12], 11.8%. Moreover, the Activity in assay [13] is recorded as 21.4%; in assay [14], 27.3%.
